The values that follow come from patent publication US20120130144A1, “TREATMENT OF LUNG CANCER WITH A NITROBENZAMIDE COMPOUND IN COMBINATION WITH A GROWTH FACTOR INHIBITOR” (BiPar Sciences, Inc., priority 2009, published 2012).

“Also recorded” adds a separate entry of the source. Read-outs that look alike come from different tables or passages of the source.

For data set [1], the system named is HCC827 cells. Put plainly: CellTiter 96 Aqueous Cell Proliferation Assay (MTS), Example 2. The format is cell-based. The note with it: in combination with BA (100 μM and 50 μM), 72 hours.
Another data set relates to chemo-refractory NSCLC. The settings on record: phase II, monotherapy, 57 evaluable patients; cited from earlier work.
Data set [2] relates to locally advanced or metastatic pancreatic cancer. The note with it: cited from earlier work.
Another data set deals with NSCLC. The note with it: cited from earlier work.
The test system of a further data set is NSCLC tumors. The settings on record: after failure of chemotherapy, cited from earlier work.
Data set [3] relates to HCC827 non-small cell lung carcinoma cells. Put plainly: FACS cell cycle analysis by DNA content and BrdU incorporation, Example 1A. It is filed as cell-based. More on the design: key to Sub-G1 / G1: % of cells in cell cycle phase. The settings on record: for BrdU (−) S / G1 / G2/M / S / Sub-G1: HCC827 (NSCLC), GFT 0 nM, 72 hours. As for the experimental part: (§1) HCC827 non-small cell lung carcinoma cells were obtained from ATCC, Rockville, Md. […] Central dose rate of approximately 1.30 Gy/minute (130 rad/minute).
(§2) After the addition of the compounds as described above, irradiation and incubation, cells were trypsinized and aliquots of the samples were taken for counting and PI (Propidium Iodide) exclusion assay. One part of the cells was centrifuged and resuspended in 0.5 ml ice-cold PBS containing 5 ug/ml of PI. The other part of the cells was fixed in ice-cold 70% ethanol and stored in a freezer overnight. For cell cycle analysis, cells were stained with propidium iodide (PI) by standard procedures. Cellular DNA content was determined by flow cytometry using BD LSRII FACS, and the percentages of cells in G1, S or G2/M were determined using ModFit software.
All cell samples were analyzed as described in [5,6] using a BD LSR II or BD Aria (BD Biosciences, San Jose, Calif.). All flow cytometry analyses were carried out using triplicate samples containing at least 30,000 cells each and the final percentages of the cell cycle distribution were normalized to singlets viable cell population, excluding cell debris and polyploid cells according established procedure.
50 μl of BrdU (Sigma Chemical Co., St. Louis, Mo.) stock solution (1 mM) was added to achieve final concentration of 10 μM BrdU. Then cells were incubated for 30 min at 37° C. and fixed in ice-cold 70% ethanol and stored at 4° C. overnight. Fixed cells were centrifuged and washed once in 2 ml PBS, then resuspended in 0.7 ml of denaturation solution (0.2 mg/ml pepsin in 2 N HCl) for 15 min at 37° C. in the dark, then 1.04 ml 1M Tris buffer (Trizma base, Sigma Chemical Co.) was added to terminate the hydrolysis. Cells were washed in 2 ml PBS and resuspended in 100-μ1(1:100 dilution) of anti-BrdU antibody (DakoCytomation, Carpinteria, Calif.) in TBFP permeable buffer (0.5% Tween-20, 1% bovine serum albumin and 1% fetal bovine serum in PBS), incubated for 25 min at room temperature in the dark and washed in 2 ml PBS. The primary antibody-labeled cells were resuspended in 100 μl ALEXA FLUOR® F(ab)2, fragment of goat anti-mouse IgG (H+L) (1:200 dilution, 2 mg/mL, Molecular Probes, Eugene, Oreg.) in TBFP buffer and incubated for 25 min at room temperature in the dark and washed in 2 ml PBS, then resuspended in 0.5 ml ice-cold PBS containing 1 μg/ml 4′,6-diamidino-2-phenylindole (DAPI) for at least 30 min [3, 6].

Data set [4] shares this test system. Briefly: Number of vital (proliferating) cells relative to control, Example 1A. The settings on record: for Live Cell: HCC827 (NSCLC), GFT 0 nM, 72 hours, percentage relative to control. It is filed as cell-based. As for the experimental part: as §1
Following treatment, the number of vital cells was measured. Percentage of the vital (proliferating) cells under different treatments was calculated relative to the control (untreated) cells.
as §2

For data set [5] the test system is unchanged. Briefly: TUNEL apoptosis detection (FACS), Example 1A. The format is cell-based. The note with it: for TUNEL (+): HCC827 (NSCLC), GFT 0 nM, 72 hours.
Description: as §1
The cells were labeled for apoptosis detection with the “In Situ Cell Death Detection Kit, Fluorescein” (Roche Diagnostics Corporation, Roche Applied Science, Indianapolis, Ind.) and analyzed based on the modified protocol from Dr. Darzynkiewicz laboratory. Briefly, fixed cells were centrifuged and washed once in phosphate-buffered saline (PBS) containing 1% bovine serum albumin (BSA), then resuspended in 2 ml permeabilization buffer (0.1% Triton X-100 and 0.1% sodium citrate in PBS) for 25 min at room temperature and washed twice in 0.2 ml PBS/1% BSA. The cells were resuspended in 50 μl TUNEL reaction mixture (TdT enzyme and labeling solution) and incubated for 60 min at 37° C. in a humidified dark atmosphere in an incubator. The labeled cells were washed once in PBS/1% BSA, then resuspended in 0.5 ml ice-cold PBS containing 1 μg/ml 4′,6-diamidino-2-phenylindole (DAPI) for at least 30 min. All cell samples were analyzed with a BD LSR II (BD Biosciences, San Jose, Calif.) and the final percentages of the cell cycle distribution were normalized to singlets viable cell population, excluding cell debris and polyploid cells according established procedure. All flow cytometry analyses were carried out using triplicate samples containing at least 30,000 cells each (typical results of 3 or more independent experiments are shown).

Data set [6] concerns HCC827 cells. Put plainly: TUNEL apoptosis assay (FACS), Example 1. It is filed as cell-based. The settings on record: GFT 0 nM, 72 hours.
Description: Lung adenocarcinoma HCC827 cells are cultured in Dulbecco Modified Eagle Medium with 10% fetal bovine serum. […] Cells are plated at a seeding density 10^5 per P100 or at 10^4 per P60 in growth media and incubated 12-18 h at 37° C., 5% CO2. BA and the EGFR inhibitor, IRESSA, are added as a single dose for 72 hours. DMSO is used as a control. […] Following treatment, cells are analyzed with BrdU ELISA assay (Roche Applied Science), FACS based cell cycle assay or TUNEL.
To detect apoptosis, the cells are labeled with the “In Situ Cell Death Detection Kit, Fluorescein” (Roche Diagnostics Corporation, Roche Applied Science, Indianapolis, Ind.). Briefly, fixed cells are centrifuged and washed once in phosphate-buffered saline (PBS) containing 1% bovine serum albumin (BSA), then resuspended in 2 ml permeabilization buffer (0.1% Triton X-100 and 0.1% sodium citrate in PBS) for 25 min at room temperature and washed twice in 0.2 ml PBS/1% BSA. The cells are resuspended in 50 μl TUNEL reaction mixture (TdT enzyme and labeling solution) and incubated for 60 min at 37° C. in a humidified dark atmosphere in an incubator. The labeled cells are washed once in PBS/1% BSA, then resuspended in 0.5 ml ice-cold PBS containing 1 μg/ml 4′,6-diamidino-2-phenylindole (DAPI) for at least 30 min. All cell samples are analyzed with a BD LSR II (BD Biosciences, San Jose, Calif.). […]
The conditions of data set [7]: in vivo; cited from earlier work.
Data set [8] deals with HCC827 cells. Briefly: Viable cell count / growth of HCC827 cells, Example 1. It is filed as cell-based. As for the experimental part:
Lung adenocarcinoma HCC827 cells are cultured in Dulbecco Modified Eagle Medium with 10% fetal bovine serum. […] Cells are plated at a seeding density 10^5 per P100 or at 10^4 per P60 in growth media and incubated 12-18 h at 37° C., 5% CO2. BA and the EGFR inhibitor, IRESSA, are added as a single dose for 72 hours. DMSO is used as a control. Cells are irradiated with 3Gy and 5Gy gamma-irradiation using γ-Irradiator Gammacell 40 Exactor (MDS Nordion, Canada). Following treatment, cells are analyzed with BrdU ELISA assay (Roche Applied Science), FACS based cell cycle assay or TUNEL.
After the addition of drugs, irradiation and incubation, cells are taken for counting and PI (Propidium Iodide) exclusion assay. One part of the cells is centrifuged and resuspended in 0.5 ml ice-cold PBS containing 5 μg/ml of PI. The other part of the cells is fixed in ice-cold 70% ethanol and stored in a freezer overnight. For cell cycle analysis, cells are stained with propidium iodide (PI) as described hereinabove. Cellular DNA content is determined by flow cytometry using BD LSRII FACS, and the percentages of cells in G1, S or G2/M are determined using ModFit software.

Data set [9] concerns HCC827 cells. Put plainly: FACS-based cell cycle analysis (PI/BrdU), Example 1. The settings on record: GFT 0 nM, 72 hours; for G1 / G2/M / S: percentage of cells.
Description: 50 μl of BrdU (Sigma Chemical Co., St. Louis, Mo.) stock solution (1 mM) is added to achieve final concentration of 10 μM BrdU. Then cells are incubated for 30 min at 37° C. and fixed in ice-cold 70% ethanol and stored at 4° C. overnight. Fixed cells are centrifuged and washed once in 2 ml PBS, then resuspended in 0.7 ml of denaturation solution (0.2 mg/ml pepsin in 2 N HCl) for 15 min at 37° C. in the dark, then 1.04 ml 1M Tris buffer (Trizma base, Sigma Chemical Co.) is added to terminate the hydrolysis. Cells are washed in 2 ml PBS and resuspended in 100-μl (1:100 dilution) of anti-BrdU antibody (DakoCytomation, Carpinteria, Calif.) in TBFP permeable buffer (0.5% Tween-20, 1% bovine serum albumin and 1% fetal bovine serum in PBS), incubated for 25 min at room temperature in the dark and washed in 2 ml PBS. The primary antibody-labeled cells are resuspended in 100 μl ALEXA FLUOR® F(ab′)2 fragment of goat anti-mouse IgG (H+L) (1:200 dilution, 2 mg/mL, Molecular Probes, Eugene, Oreg.) in TBFP buffer and incubated for 25 min at room temperature in the dark and washed in 2 ml PBS, then resuspended in 0.5 ml ice-cold PBS containing 1 μg/ml 4′,6-diamidino-2-phenylindole (DAPI) for at least 30 min. All cell samples are analyzed with a BD LSR II (BD Biosciences, San Jose, Calif.). All flow cytometry analyses are carried out using triplicate samples containing at least 30,000 cells each (typical results of independent experiments are shown).
[10] abbreviates: combination treatment arm (TARCEVA with gemcitabine).
[11] abbreviates: phase III versus placebo, NSCLC after failed prior chemotherapy.
[12] abbreviates: Caucasian patients with NSCLC tumors.
Setting [13] is: gefitinib-treated HCC827 cells, FIG. 2c.
The mark [14] stands for this setting: Homo sapiens, HCC827, 72 h, read-out: Viable Cell.

In the case of `COC(=O)[C@@]1(O)C[C@H]2O[C@]1(C)n1c3ccccc3c3c4c(c5c6ccccc6n2c5c31)C(=O)NC4` [K252a, (9S-(9α,10β,12α))-2,3,9,10,11,12-hexahydro-10-hydroxy-10-(methoxycarbonyl)-9-methyl-9,12-epoxy-1H-diindolo[1,2,3-fg:3′,2′,1′-kl]pyrrolo[3,4-i][1,6]benzodiazocin-1-one], the “effect of BA on antiproliferative effects of growth factor receptors inhibitors” value with HCC827 cells [1] is on record as “potentiation of antiproliferative effects”.

Turning to `COc1cc([C@@H]2c3cc4c(cc3[C@H](O)[C@H]3COC(=O)[C@@H]23)OCO4)cc(OC)c1OC` [PPP, (5R,5aS,8aR,9R)-5,8,8a,9-Tetrahydro-9-hydroxy-5-(3,4,5-trimethoxyphenyl)-furo[3′,′: 6,7]naphtho[2,3-d]-1,3-dio xol-6(5aH)-one], the “effect of BA on antiproliferative effects of growth factor receptors inhibitors” value in the data set with HCC827 cells [1] was “potentiation of antiproliferative effects”.

As to `C#Cc1cccc(Nc2ncnc3cc(OCCOC)c(OCCOC)cc23)c1` [TARCEVA, erlotinib], in the data set on chemo-refractory NSCLC, the “patients achieving disease stabilisation” value is given as 51% and the “patients surviving for at least 12 months” value is 40%. In data set [2] (setting [10]), the Median survival is listed as 6.4 months and the one-year survival is reported as 25.6%. The “improvement in overall survival” value in [2] (in combination with gemcitabine, compared with gemcitabine alone) is 23.5%. In addition, in the data set on NSCLC (NSCLC primary registration trial), the “patients affected by rash” value is listed as 75%. Besides, in the data set on NSCLC (clinical trials), the tolerability entry is listed as “generally well tolerated”. Moreover, in the data set on NSCLC (setting [11]), the “improvement in median survival” value is on record as 42% and the “improvement in one-year survival” value is on record as 45%. Further, the major objective responses entry in the data set with NSCLC tumors (setting [12]) is recorded as “approximately 10%”.

`NC(=O)c1ccc(I)c(N=O)c1` [BNO, 4-iodo-3-nitrosobenzamide]: in data set [3] (BNO 25 uM), the “BrdU (−) S” value turned out to be 1.30, the G1 is 61.10, the G2/M turned out to be 7.20 and the S came to 29.30. The compound also came in with a Sub-G1 in data set [3] (BNO 25 uM) of 1.10. In data set [3] (BNO 50 uM), the “BrdU (−) S” value came to 3.50, the G1 came to 38.74, the G2/M is 11.41 and the S amounted to 44.24. The compound further returned a Sub-G1 in [3] (BNO 50 uM) of 2.10. Further, the “Live Cell” value in [4] (BNO 25 uM) was 76. Further, the “Live Cell” value in [4] (BNO 50 uM) was determined as 40. Also, the “TUNEL (+)” value in data set [5] (BNO 25 uM) is 2.9. Also, the “TUNEL (+)” value in data set [5] (BNO 50 uM) was found to be 7.7.

Regarding `Nc1ccn([C@@H]2O[C@H](CO)[C@@H](O)C2(F)F)c(=O)n1` [gemcitabine], in [2] (gemcitabine plus placebo), the Median survival is 5.9 months and the one-year survival was 19.7%.

For `NC(=O)c1ccc(I)c([N+](=O)[O-])c1` [BA, 4-iodo-3-nitrobenzamide], the “TUNEL (+)” value in the data set with HCC827 cells [6] (BA 50 uM) is 5.7. The “TUNEL (+)” value in the data set with HCC827 cells [6] (BA 100 uM) was 32.8. Further, in [3] (BA 50 uM), the “BrdU (−) S” value came to 1.95, the G1 is listed as 46.26, the G2/M is 8.82 and the S is reported as 40.62. The compound also had a Sub-G1 in data set [3] (BA 50 uM) of 2.36. In data set [3] (BA 100 uM), the “BrdU (−) S” value is recorded as 8.05, the G1 was 43.76, the G2/M turned out to be 12.49 and the S worked out at 19.92. In [3] (BA 100 uM), the Sub-G1 worked out at 15.79. Further, the cell cycle arrest entry in data set [3] (gefitinib treated HCC827 cells) is “enhanced cell cycle arrest”. Also, in data set [3] (setting [13]), the “number of cells in G1 and S phases of cell cycle” value was “reduced number of cells in G1 and S phases”; the “number of dead cells (sub-G1)” value is reported as “induced number of dead cells (sub-G1)”. In [7], the “crossing of the blood-brain barrier” value was “known to cross the blood-brain barrier”; the distribution into tissues result was “distributes rapidly and widely into tissues, including the brain and cerebrospinal fluid (CSF)”. Further, in data set [4] (BA 50 uM), the “Live Cell” value is on record as 65. Also, the “Live Cell” value in data set [4] (BA 100 uM) was determined as 25. The “effect of BA on antiproliferative effect of growth factor inhibitors” value in data set [4] (HCC827 cells, FIG. 2a-2c) is “potentiates antiproliferative effect of growth factor inhibitors”. Besides, the “effect of BA on antitumor activity of gefitinib” value in [4] (non-small lung carcinoma cells) is recorded as “potentiates antitumor activity of gefitinib”. The “effect of BA on the activity of gefitinib (IRESSA)” value in the data set with HCC827 cells [8] (HCC827 cell line, FIG. 1) is reported as “potentiates the activity of gefitinib; also recorded: potentiates the activity of the EGFR inhibitor, IRESSA”. In the data set on HCC827 cells [8] (setting [14]), the viability at 50 µM is 65% and the viability at 100 µM is 25%. Moreover, in the data set with HCC827 cells [9] (BA 50 uM), the Sub-G1 came to 2.4, the G1 was determined as 46.3, the G2/M was 8.8 and the S came to 40.6. In the data set with HCC827 cells [9] (BA 100 uM), the Sub-G1 turned out to be 15.8, the G1 is recorded as 43.8, the G2/M worked out at 12.5 and the S is reported as 19.9. Moreover, the “TUNEL (+)” value in [5] (BA 50 uM) is given as 5.7. Besides, the “TUNEL (+)” value in data set [5] (BA 100 uM) turned out to be 32.8. The apoptosis result in data set [5] (gefitinib treated HCC827 cells) was “induced apoptosis”.

Turning to `COc1cc2ncnc(Nc3ccc(F)c(Cl)c3)c2cc1OCCCN1CCOCC1` [GFT, gefitinib], the major objective responses result with NSCLC tumors (setting [12]) is on record as “approximately 10%”; in the data set on NSCLC tumors (Japanese patients with NSCLC tumors) it was 25-30%.
